{
  "source": "patent US20200093801A1",
  "about": "“NEW METHODS FOR THE TREATMENT OF MULTIPLE SCLEROSIS” (Novartis AG, priority 2017, published 2020)",
  "key": {"[1]": {"tested_on": "Cuprizone-Induced Demyelination in Mice", "assay": "Cuprizone-induced demyelination in mice, MRI (169 mg/kg)", "assay_type": "in vivo, Mice (C57BL/6J)", "conditions": "169 mg/kg p.o. qd, 2-week therapeutic treatment after 5 weeks 0.2% cuprizone", "description": "Studies described below were approved by the Swiss Cantonal Veterinary Authority of Basel City, Switzerland, under the license number 2711. Mice (C57BL/6J) were commercially purchased from Charles River Laboratories, Germany or obtained from Novartis Pharma AG breeding colonies (8-9 weeks old, females). All the animals were allowed to adapt for 7 days prior the start of the experiment and housed in IVC racks (max. 4 mice/XJ Type cage). The animals were given access to food and water ad libitum. Animals were treated with cuprizone for 5 weeks. Cuprizone (Bis(cyclohexanone)oxaldihydrazone, Sigma-Aldrich) was mixed into rodent food pellets (0.2% w/w) by Provimi Kliba AG, Switzerland. Therapeutic treatment of animals after cuprizone was performed for 2 weeks on normal food with 169 mg/kg of BLZ945, qd, p.o. 10 ml/kg. BLZ945 was prepared in vehicle consisting of 0.5% methylcellulose in water and 0.1% Tween-80. Before killing 3 h after last BLZ945 dosing animals were perfused transcardially by phosphate-buffered saline (PBS), brains isolated and fixed in 4% paraformaldehyde (PFA) for 48 h at 4° C.\nMeasurements were performed with a Biospec 70/30 spectrometer (Bruker Medical Systems, Ettlingen, Germany) operating at 7 T. The operational software of the scanner was Paravision 5.1 (Bruker). Images were acquired from anesthetized, spontaneously breathing animals using a mouse brain circularly polarized coil (Bruker, Model 1P T20063V3; internal diameter 23 mm) for radiofrequency excitation and detection; neither cardiac nor respiratory triggering was applied. Following a short period of introduction in a box, animals were maintained in anesthesia with 1.5% isoflurane (Abbott, Cham, Switzerland) in oxygen, administered via a nose cone. During MRI signal acquisitions, animals were placed in prone position in a cradle made of Plexiglas, the body temperature was kept at 37±1° C. using a heating pad, and the respiration was monitored.\nA T2-weighted, two-dimensional multislice RARE (Rapid Acquisition with Relaxation Enhancement) sequence (Hennig et al., 1986) was used for determining the anatomical orientation and for evaluating signal intensities. This was followed by a two-dimensional multislice gradient-recalled FLASH (Fast Low-Angle Shot) acquisition (Haase et al., 1986) for assessment of Magnetization Transfer Ration (MTR). As both sequences had the same anatomical parameters, the choice of the regions-of-interest for evaluations was performed on the RARE images and then transferred to the FLASH images. The parameters of the acquisitions were the following: (a) RARE sequence: effective echo time 80 ms, repetition time 3280 ms, RARE factor 16, 12 averages, field of view 20×18 mm^2, matrix size 213×192, pixel size 0.094×0.094 mm^2, slice thickness 0.5 mm, 15 adjacent slices. […]"}, "[2]": {"tested_on": "microglia", "assay": "Microglia depletion and activation in naive/wildtype mice after 5 days of treatment (Iba1 histology)", "assay_type": "in vivo", "method": "After fixation brains were processed for paraffin embedding by dehydration through increasing ethanol series. Automated immunohistochemistry of paraffin sections was performed on 3 μm paraffin sections mounted on SuperFrost+slides (Thermo Fisher Scientific) and automatically immunostained using the Discovery XT technology (Ventana, Roche Diagnostics). Sections were deparaffinized, rehydrated, subjected to antigen retrieval by heating with CC1 cell conditioning buffer for 28-68 min according to the antibody, incubated for 1-3 hours according to the antibody at room temperature with primary antibody diluted in antibody diluent (Ventana), incubated with the respective biotinylated secondary antibody diluted in antibody diluent, reacted with DABMab kit and counterstained with Hematoxylin II and Bluing reagent (Ventana). Slides were washed with soap in hot tap water and rinsed under cold running tap water to remove the soap, then dehydrated and embedded with Pertex.\nSecondary detection antibodies are: Goat anti-rabbit IgG biotinylated (Jackson ImmunoResearch 111-065-144) 1:1000; Goat anti-rabbit IgG biotinylated (Vector BA-1000) 1:200 or 1:1000\nFor the quantitative evaluation of microglia/astrocyte numbers based on image analysis from histological stained brain sections, a proprietary image analysis platform (ASTORIA, Automated Stored Image Analysis) was developed based on MS Visual Studio 2010 and many functions from Matrox MIL V9 libraries (Matrox Inc, Quebec, Canada).\nFor the detection and analysis of soma the following sequence of steps was performed: 1. Slides with brain sections for assessment of (brown) IHC stained microglia (Iba1) or astrocyte (GFAP) were scanned with Aperio's Scanscope at 20× magnification. 2. Ran the in-house developed ImageScope (V12.1.0.5029, Aperio Inc., USA) plug-in for creation and export of 3×8-bit RGB tif image tiles (at 20× magnification) for each section. 3. Image processing (for each tif image): A: Performed color deconvolution on each tif image to obtain brown stained image without blue. B: Segmentation of valid sample (brain tissue) from white background through thresholding, morphological closing, filling of holes, opening and elimination of too small objects, resulting in a binary mask of the valid tissue and sample area for the current image. C: Applied an adaptive thresholding technique for the individual segmentation of soma, based on the average gray value of the blue channel of the color-deconvoluted brown image at sufficiently dark regions (indicative for soma). The computed threshold was used for binarization, and after size filtering yielding the soma mask image (within the valid sample region).\nFIG. 10: BLZ945 treatment leads to microglia depletion and microglia activation in a dose-dependent manner. […]"}, "[3]": {"conditions": "normalized to vehicle control (normal food)"}, "[4]": {"conditions": "20 mg/kg p.o. qd, naive/wildtype mice"}},
  "note": "Entries after “also recorded” stand apart in the source; their conditions may differ.",
  "data": [
    {"smiles": "CNC(=O)c1cc(Oc2ccc3nc(N[C@@H]4CCCC[C@H]4O)sc3c2)ccn1", "note": "[BLZ945, 4-(2-((1R,2R)-2-hydroxycyclohexylamino)benzothiazol-6-yloxy)-N-methylpicolinamide]", "values": [
      {"measurement": "Magnetization transfer ratio (MTR) in corpus callosum", "setting": "[1]", "value": "No beneficial effect"},
      {"measurement": "MRI contrast in corpus callosum", "setting": "[1]; [3]", "value": "not corpus callosum; also recorded: No beneficial effect"},
      {"measurement": "MRI contrast in cortex", "setting": "[1]; [3]", "value": "reduces MRI contrast; also recorded: significant beneficial effect; also recorded: almost normalized to levels of control mice"},
      {"measurement": "MRI contrast in striatum", "setting": "[1]; [3]", "value": "reduces MRI contrast; also recorded: significant beneficial effect; also recorded: almost normalized to levels of control mice"},
      {"measurement": "Microglia activation (Iba1-positive microglia size normalized to distal microglia processes), cortex", "setting": "[2]; [4]", "value": "only mildly; also recorded: slight increase in the activation status"},
      {"measurement": "Microglia depletion (Iba1-positive microglia numbers), cortex", "setting": "[2]; [4]", "value": "no microglia depletion; also recorded: no microglia reduction"},
      {"measurement": "Microglia activation (Iba1-positive microglia size normalized to distal microglia processes), cortex", "setting": "[2]; 60 mg/kg p.o. qd, naive/wildtype mice", "value": "strong microglia activation; also recorded: substantially enhanced the morphological activation status; also recorded: altered microglia morphology"},
      {"measurement": "Microglia depletion", "setting": "[2]; 169 mg/kg p.o. qd, naive animals, all brain areas", "value": "almost completely depletes microglia; also recorded: near complete microglia depletion"}
    ]}
  ]
}
